Data set [1] concerns Staphylococcus aureus. In words: Antimicrobial screening, agar dilution method. The settings on record: after 10, 20, 40 and 60 minutes at all dilutions 1:100, 1:200, 1:400, 1:800. Format: cell-based. Here is the method:
(§1) The antibacterial properties of the synthesized compound 2-benzo-[3,4-b]pyridine-[b,g]indeno[1′,2′:3,4]fluoreno-[1,2-d]oxonine-5,11,16,21-tetraone were studied by the method of agar dilution. Test solutions of each compound was prepared in concentration of 1% using dimethylformamide as a solvent then they are diluted in physiological solution to obtain the final experimental dilutions 1:100, 1:200, 1:400, 1:800. The effect of these substances are compared with furacillin in a controllable study. The testing microbes used were gram positive bacteria Staphylococcus aureus, gram negative bacteria Pseudomonas aeruginosa and Escherichia coli and Candida albicans fungus. The experiments used for this survey were meat-pentonlu agar (EPA) for cultivation of bacteria and Saburo environment for the fungus. Each experiment used 1 mL of test solution on each plate […]. Two drops of emulsified with microbes feel were added. All experimental samples were taken from the agar after 10, 20, 40, 60 minutes in the environment on the basis of Patrk planted. The bacteria were cultivated at a temperature of 37° C. for 1 day and the mushroom was kept in a thermostat for 2 hours at a temperature of 28° C. Then results were checked.
For orientation: Agar dilution tests growth on a series of plates holding different concentrations.

In data set [2] the test system is Pseudomonas aeruginosa. In words: Antimicrobial screening, agar dilution method. Format: cell-based. The settings on record: after 10, 20, 40 and 60 minutes at all dilutions 1:100, 1:200, 1:400, 1:800. Here is the method: as §1
The test system of data set [3] is Candida albicans. Briefly: Antimicrobial screening, agar dilution method. It is filed as cell-based. The settings on record: after 10, 20, 40 and 60 minutes at all dilutions 1:100, 1:200, 1:400, 1:800. Here is the method:
as §1

The subject of data set [4] is Escherichia coli. In words: Antimicrobial screening, agar dilution method. It is filed as cell-based. The note with it: after 10, 20, 40 and 60 minutes at all dilutions 1:100, 1:200, 1:400, 1:800. The procedure: as §1

SMILES strings stand for the structures.

`O=C1Oc2ncccc2-c2c(c3c4ccccc4c(=O)c3c3c2c(=O)c2ccccc23)C(=O)c2ccccc21` [2-benzo-[3,4-b]pyridine-[b,g]indeno[1′,2′:3,4]fluoreno-[1,2-d]oxonine-5,11,16,21-tetraone] gave a melting point of 270 to 271 °C. For the same molecule, the inhibition activity result in data set [1] is “highest inhibition activity”. Besides, the inhibition activity result in data set [2] was “highest inhibition activity”. In data set [3], the inhibition activity result was “highest inhibition activity”. Besides, the inhibition activity entry in data set [4] is listed as “highest inhibition activity”.

Broadly, the melting point is the temperature, or range, at which the solid turns liquid.

The values above are taken from patent publication US12134622B1, “2-benzo-[3,4-b]pyridine-[b,g]indeno[1,2;3,4]fluoreno-[1,2-d]oxonine-5,11,16,21-tetraone as an antimicrobial compound” (KING FAISAL UNIVERSITY, priority 2023, dated 2024).
